{
  "source": "ChEMBL document CHEMBL4507300",
  "about": "(2021)",
  "key": {"[1]": {"molecular_target": "Inhibitor of nuclear factor kappa-B kinase subunit alpha (Homo sapiens) (UniProt O15111)", "conditions": "Compound concentration 1000.0 nM"}, "[2]": {"molecular_target": "Mitogen-activated protein kinase kinase kinase 6 (Homo sapiens) (UniProt O95382)", "conditions": "Compound concentration 1000.0 nM"}, "[3]": {"molecular_target": "Ephrin type-A receptor 2 (Homo sapiens) (UniProt P29317)", "sequence (P29317 whole entry)": "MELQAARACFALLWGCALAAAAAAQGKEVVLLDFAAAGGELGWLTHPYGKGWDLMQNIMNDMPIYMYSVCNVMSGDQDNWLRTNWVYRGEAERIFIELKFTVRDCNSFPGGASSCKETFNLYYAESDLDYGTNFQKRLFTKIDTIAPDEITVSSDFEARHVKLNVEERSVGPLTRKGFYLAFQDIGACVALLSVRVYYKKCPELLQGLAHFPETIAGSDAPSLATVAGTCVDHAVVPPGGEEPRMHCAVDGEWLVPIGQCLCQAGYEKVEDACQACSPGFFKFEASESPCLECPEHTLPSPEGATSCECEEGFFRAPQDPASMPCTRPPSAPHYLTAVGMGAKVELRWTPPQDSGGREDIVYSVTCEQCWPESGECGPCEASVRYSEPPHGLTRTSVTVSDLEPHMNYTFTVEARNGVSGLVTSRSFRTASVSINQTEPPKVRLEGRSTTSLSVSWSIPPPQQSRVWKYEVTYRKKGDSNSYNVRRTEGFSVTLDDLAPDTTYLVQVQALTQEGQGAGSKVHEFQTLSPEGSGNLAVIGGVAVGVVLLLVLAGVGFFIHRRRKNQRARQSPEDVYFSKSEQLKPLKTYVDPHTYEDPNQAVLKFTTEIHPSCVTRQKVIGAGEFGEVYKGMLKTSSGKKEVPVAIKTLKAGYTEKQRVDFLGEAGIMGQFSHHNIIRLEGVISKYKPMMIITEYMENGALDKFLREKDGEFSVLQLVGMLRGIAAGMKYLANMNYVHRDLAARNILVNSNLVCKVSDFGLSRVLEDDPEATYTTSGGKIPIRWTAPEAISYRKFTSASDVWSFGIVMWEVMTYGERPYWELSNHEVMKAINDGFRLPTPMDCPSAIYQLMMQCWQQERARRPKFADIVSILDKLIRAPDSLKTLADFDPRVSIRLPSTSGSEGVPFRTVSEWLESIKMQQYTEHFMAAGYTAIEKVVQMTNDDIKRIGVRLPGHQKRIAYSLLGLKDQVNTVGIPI", "conditions": "Compound concentration 1000.0 nM"}, "[4]": {"molecular_target": "TRAF2 and NCK-interacting protein kinase (Homo sapiens) (UniProt Q9UKE5)", "conditions": "Compound concentration 1000.0 nM"}, "[5]": {"molecular_target": "Phosphatidylinositol 4,5-bisphosphate 3-kinase catalytic subunit gamma isoform (Homo sapiens) (UniProt P48736)", "conditions": "Compound concentration 1000.0 nM"}, "[6]": {"molecular_target": "Ribosomal protein S6 kinase alpha-2 (Homo sapiens) (UniProt Q15349)", "conditions": "Compound concentration 1000.0 nM"}, "[7]": {"molecular_target": "Alpha-1B adrenergic receptor (Homo sapiens) (UniProt P35368)", "conditions": "Compound concentration 10.0 uM"}, "[8]": {"molecular_target": "Serine/threonine-protein kinase PAK 4 (Homo sapiens) (UniProt O96013)", "conditions": "Compound concentration 1000.0 nM"}, "[9]": {"molecular_target": "Serine/threonine-protein kinase WNK3 (Homo sapiens) (UniProt Q9BYP7)", "conditions": "Compound concentration 1000.0 nM"}, "Histamine H1 receptor": {"molecular_target": "Histamine H1 receptor (Homo sapiens, UniProt P35367)", "conditions": "Compound concentration 10.0 uM"}, "[10]": {"molecular_target": "Tyrosine-protein kinase ABL1 (Homo sapiens) (UniProt P00519)", "conditions": "Compound concentration 1000.0 nM"}, "Rattus norvegicus": {"organism": "Rattus norvegicus", "conditions": "Compound concentration 10.0 uM"}, "[11]": {"tested_on": "Epidermal growth factor receptor (Homo sapiens), P00533 [UNDEFINED MUTATION]", "sequence (P00533 whole entry, looked up, change not shown)": "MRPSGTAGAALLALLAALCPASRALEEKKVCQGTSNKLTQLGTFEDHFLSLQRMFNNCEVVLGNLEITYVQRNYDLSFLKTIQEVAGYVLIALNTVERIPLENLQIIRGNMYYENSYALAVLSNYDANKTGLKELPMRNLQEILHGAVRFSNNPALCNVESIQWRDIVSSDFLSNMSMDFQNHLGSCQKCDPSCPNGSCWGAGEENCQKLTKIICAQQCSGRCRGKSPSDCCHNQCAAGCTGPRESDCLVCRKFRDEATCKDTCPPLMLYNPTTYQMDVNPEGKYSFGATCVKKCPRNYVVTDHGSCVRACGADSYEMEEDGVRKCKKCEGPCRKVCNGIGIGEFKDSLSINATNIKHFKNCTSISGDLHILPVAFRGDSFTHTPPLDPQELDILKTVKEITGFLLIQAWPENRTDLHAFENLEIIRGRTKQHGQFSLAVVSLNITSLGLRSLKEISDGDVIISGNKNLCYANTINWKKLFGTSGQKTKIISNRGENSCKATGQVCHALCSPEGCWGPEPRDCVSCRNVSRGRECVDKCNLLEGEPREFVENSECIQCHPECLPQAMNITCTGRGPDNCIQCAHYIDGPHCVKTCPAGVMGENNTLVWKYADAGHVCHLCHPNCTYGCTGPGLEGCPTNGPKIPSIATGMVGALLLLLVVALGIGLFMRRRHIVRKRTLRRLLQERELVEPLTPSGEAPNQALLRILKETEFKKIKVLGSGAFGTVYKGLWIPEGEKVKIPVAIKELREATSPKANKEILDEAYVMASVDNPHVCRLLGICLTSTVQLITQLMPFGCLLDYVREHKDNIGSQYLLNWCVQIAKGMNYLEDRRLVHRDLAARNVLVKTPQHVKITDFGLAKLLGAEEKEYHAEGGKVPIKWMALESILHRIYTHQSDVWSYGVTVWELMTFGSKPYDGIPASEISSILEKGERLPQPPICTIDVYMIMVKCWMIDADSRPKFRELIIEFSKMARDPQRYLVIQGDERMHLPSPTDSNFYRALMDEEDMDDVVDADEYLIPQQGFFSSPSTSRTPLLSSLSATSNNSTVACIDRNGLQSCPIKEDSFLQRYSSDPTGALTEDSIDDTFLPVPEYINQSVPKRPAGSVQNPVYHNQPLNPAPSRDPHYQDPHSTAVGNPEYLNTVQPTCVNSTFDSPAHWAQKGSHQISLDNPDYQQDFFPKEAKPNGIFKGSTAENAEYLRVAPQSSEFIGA", "conditions": "Compound concentration 1000.0 nM"}, "[12]": {"molecular_target": "Mitogen-activated protein kinase kinase kinase kinase 3 (Homo sapiens) (UniProt Q8IVH8)", "conditions": "Compound concentration 1000.0 nM"}, "[13]": {"molecular_target": "Tyrosine-protein kinase receptor TYRO3 (Homo sapiens) (UniProt Q06418)", "conditions": "Compound concentration 1000.0 nM"}, "[14]": {"tested_on": "Tyrosine-protein kinase ABL1 (Homo sapiens), P00519 [F317L]", "conditions": "Compound concentration 1000.0 nM"}, "[15]": {"molecular_target": "5-hydroxytryptamine receptor 1D (Homo sapiens) (UniProt P28221)", "conditions": "Compound concentration 10.0 uM"}, "[16]": {"molecular_target": "Proto-oncogene tyrosine-protein kinase receptor Ret (Homo sapiens) (UniProt P07949)", "conditions": "Compound concentration 1000.0 nM"}, "[17]": {"molecular_target": "Rho-associated protein kinase 1 (Homo sapiens) (UniProt Q13464)", "conditions": "Compound concentration 1000.0 nM"}, "[18]": {"tested_on": "Tyrosine-protein kinase ABL1 (Homo sapiens), P00519 [F317I]", "conditions": "Compound concentration 1000.0 nM"}, "[19]": {"molecular_target": "3-phosphoinositide-dependent protein kinase 1 (Homo sapiens) (UniProt O15530)", "conditions": "Compound concentration 1000.0 nM"}, "[20]": {"tested_on": "Mast/stem cell growth factor receptor Kit (Homo sapiens), P10721 [V559D,T670I]", "conditions": "Compound concentration 1000.0 nM"}, "[21]": {"tested_on": "Tyrosine-protein kinase ABL1 (Homo sapiens), P00519 [T315I]", "conditions": "Compound concentration 1000.0 nM"}, "[22]": {"molecular_target": "Serine/threonine-protein kinase ULK3 (Homo sapiens) (UniProt Q6PHR2)", "conditions": "Compound concentration 1000.0 nM"}, "[23]": {"tested_on": "Epidermal growth factor receptor (Homo sapiens), P00533 [UNDEFINED MUTATION]", "conditions": "Compound concentration 1000.0 nM", "remark": "listed apart in the source"}, "[24]": {"tested_on": "Phosphatidylinositol 4,5-bisphosphate 3-kinase catalytic subunit alpha isoform (Homo sapiens), P42336 [M1043I]", "conditions": "Compound concentration 1000.0 nM"}, "[25]": {"molecular_target": "Serine/threonine-protein kinase WNK2 (Homo sapiens) (UniProt Q9Y3S1)", "conditions": "Compound concentration 1000.0 nM"}, "[26]": {"molecular_target": "Dual serine/threonine and tyrosine protein kinase (Homo sapiens) (UniProt Q6XUX3)", "sequence (Q6XUX3 whole entry)": "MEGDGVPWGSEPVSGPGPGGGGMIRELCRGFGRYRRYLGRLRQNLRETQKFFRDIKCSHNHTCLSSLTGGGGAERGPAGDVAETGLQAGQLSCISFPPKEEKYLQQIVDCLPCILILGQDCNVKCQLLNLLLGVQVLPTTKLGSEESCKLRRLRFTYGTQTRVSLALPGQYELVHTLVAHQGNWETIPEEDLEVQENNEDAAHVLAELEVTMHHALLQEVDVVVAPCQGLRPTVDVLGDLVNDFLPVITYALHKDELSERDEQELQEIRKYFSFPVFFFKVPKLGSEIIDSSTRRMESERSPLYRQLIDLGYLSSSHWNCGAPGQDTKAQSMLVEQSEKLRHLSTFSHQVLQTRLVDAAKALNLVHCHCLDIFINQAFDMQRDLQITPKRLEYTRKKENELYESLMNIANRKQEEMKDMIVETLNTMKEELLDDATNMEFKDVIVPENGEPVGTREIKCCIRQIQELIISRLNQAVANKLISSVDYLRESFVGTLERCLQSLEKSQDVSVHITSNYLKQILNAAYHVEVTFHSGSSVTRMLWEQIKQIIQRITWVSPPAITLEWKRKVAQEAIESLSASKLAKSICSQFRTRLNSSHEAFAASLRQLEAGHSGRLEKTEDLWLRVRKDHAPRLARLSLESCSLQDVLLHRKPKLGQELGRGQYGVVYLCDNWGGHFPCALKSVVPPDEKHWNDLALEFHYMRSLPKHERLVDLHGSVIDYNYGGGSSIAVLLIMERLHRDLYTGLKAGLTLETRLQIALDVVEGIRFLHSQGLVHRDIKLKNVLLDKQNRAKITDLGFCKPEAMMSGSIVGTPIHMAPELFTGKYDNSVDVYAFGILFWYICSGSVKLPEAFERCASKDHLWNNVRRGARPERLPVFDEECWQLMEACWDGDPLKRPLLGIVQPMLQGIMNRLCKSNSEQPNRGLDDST", "conditions": "Compound concentration 1000.0 nM"}, "[27]": {"molecular_target": "Alpha-1A adrenergic receptor (Homo sapiens) (UniProt P35348)", "conditions": "Compound concentration 10.0 uM"}, "[28]": {"molecular_target": "Serine/threonine-protein kinase B-raf (Homo sapiens) (UniProt P15056)", "conditions": "Compound concentration 1000.0 nM"}, "[29]": {"molecular_target": "Dual specificity protein kinase CLK4 (Homo sapiens) (UniProt Q9HAZ1)", "conditions": "Compound concentration 1000.0 nM"}, "[30]": {"molecular_target": "Receptor tyrosine-protein kinase erbB-2 (Homo sapiens) (UniProt P04626)", "conditions": "Compound concentration 1000.0 nM"}, "[31]": {"molecular_target": "Discoidin domain-containing receptor 2 (Homo sapiens) (UniProt Q16832)", "conditions": "Compound concentration 1000.0 nM"}, "[32]": {"molecular_target": "Cyclin-dependent kinase 19 (Homo sapiens) (UniProt Q9BWU1)", "conditions": "Compound concentration 1000.0 nM"}, "[33]": {"molecular_target": "RAC-alpha serine/threonine-protein kinase (Homo sapiens) (UniProt P31749)", "conditions": "Compound concentration 1000.0 nM"}, "[34]": {"molecular_target": "Serine/threonine-protein kinase D3 (Homo sapiens) (UniProt O94806)", "conditions": "Compound concentration 1000.0 nM"}, "[35]": {"molecular_target": "Leukocyte tyrosine kinase receptor (Homo sapiens) (UniProt P29376)", "sequence (P29376 whole entry)": "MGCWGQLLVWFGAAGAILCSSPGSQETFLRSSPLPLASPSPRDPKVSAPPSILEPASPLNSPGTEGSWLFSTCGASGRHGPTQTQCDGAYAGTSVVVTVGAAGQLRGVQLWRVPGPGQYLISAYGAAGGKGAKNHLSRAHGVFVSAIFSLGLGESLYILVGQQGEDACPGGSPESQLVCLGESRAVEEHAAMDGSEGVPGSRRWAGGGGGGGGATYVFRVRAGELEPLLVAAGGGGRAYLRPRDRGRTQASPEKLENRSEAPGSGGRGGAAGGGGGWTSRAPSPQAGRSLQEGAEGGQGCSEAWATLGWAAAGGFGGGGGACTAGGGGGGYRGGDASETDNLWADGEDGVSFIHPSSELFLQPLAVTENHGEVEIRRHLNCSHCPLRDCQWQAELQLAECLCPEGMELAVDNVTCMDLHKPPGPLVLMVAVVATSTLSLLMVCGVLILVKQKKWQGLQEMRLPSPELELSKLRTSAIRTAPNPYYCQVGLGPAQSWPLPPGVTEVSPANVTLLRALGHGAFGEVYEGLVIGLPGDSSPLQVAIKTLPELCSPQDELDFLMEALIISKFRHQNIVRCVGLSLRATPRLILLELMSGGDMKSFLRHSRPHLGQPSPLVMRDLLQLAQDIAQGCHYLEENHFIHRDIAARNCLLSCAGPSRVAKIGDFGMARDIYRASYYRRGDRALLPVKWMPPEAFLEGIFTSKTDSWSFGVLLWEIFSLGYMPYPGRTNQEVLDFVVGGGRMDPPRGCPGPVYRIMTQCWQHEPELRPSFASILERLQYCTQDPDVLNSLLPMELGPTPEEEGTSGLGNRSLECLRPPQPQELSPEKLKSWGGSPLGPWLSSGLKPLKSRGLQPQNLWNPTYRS", "conditions": "Compound concentration 1000.0 nM"}, "[36]": {"molecular_target": "Serine/threonine-protein kinase DCLK3 (Homo sapiens) (UniProt Q9C098)", "conditions": "Compound concentration 1000.0 nM"}, "[37]": {"molecular_target": "D(4) dopamine receptor (Homo sapiens) (UniProt P21917)", "sequence (P21917 whole entry)": "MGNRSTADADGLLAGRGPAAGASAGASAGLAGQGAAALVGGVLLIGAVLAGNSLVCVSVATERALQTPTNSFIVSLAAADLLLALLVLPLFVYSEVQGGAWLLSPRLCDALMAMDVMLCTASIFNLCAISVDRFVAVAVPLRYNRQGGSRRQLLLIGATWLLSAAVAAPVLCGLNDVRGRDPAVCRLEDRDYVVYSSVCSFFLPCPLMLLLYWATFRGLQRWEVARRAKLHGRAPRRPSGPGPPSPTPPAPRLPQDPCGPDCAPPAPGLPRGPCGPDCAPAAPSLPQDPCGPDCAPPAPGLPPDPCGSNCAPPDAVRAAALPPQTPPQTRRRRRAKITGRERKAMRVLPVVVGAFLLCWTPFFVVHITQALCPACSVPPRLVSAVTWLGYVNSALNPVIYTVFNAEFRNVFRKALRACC", "conditions": "Compound concentration 10.0 uM"}, "[38]": {"molecular_target": "Tyrosine-protein kinase ZAP-70 (Homo sapiens) (UniProt P43403)", "conditions": "Compound concentration 1000.0 nM"}, "[39]": {"molecular_target": "Serine/threonine-protein kinase Nek3 (Homo sapiens) (UniProt P51956)", "sequence (P51956 whole entry)": "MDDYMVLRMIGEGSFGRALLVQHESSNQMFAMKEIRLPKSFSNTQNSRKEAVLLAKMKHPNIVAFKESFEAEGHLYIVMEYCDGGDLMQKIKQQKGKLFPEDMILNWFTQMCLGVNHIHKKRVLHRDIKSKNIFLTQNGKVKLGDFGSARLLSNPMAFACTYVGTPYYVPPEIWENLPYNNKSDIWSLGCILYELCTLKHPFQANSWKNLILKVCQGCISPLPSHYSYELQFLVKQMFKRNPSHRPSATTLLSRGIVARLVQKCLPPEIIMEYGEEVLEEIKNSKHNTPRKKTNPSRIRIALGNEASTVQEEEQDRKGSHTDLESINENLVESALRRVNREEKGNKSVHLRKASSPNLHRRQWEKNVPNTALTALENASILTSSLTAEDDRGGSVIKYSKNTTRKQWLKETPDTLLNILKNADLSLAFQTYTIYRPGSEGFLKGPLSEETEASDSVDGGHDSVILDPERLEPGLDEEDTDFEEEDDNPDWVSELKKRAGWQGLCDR", "conditions": "Compound concentration 1000.0 nM"}, "[40]": {"molecular_target": "Rho-associated protein kinase 2 (Homo sapiens) (UniProt O75116)", "conditions": "Compound concentration 1000.0 nM"}, "[41]": {"tested_on": "Fibroblast growth factor receptor 3 (Homo sapiens), P22607 [G697C]", "conditions": "Compound concentration 1000.0 nM"}, "[42]": {"molecular_target": "Insulin receptor-related protein (Homo sapiens) (UniProt P14616)", "conditions": "Compound concentration 1000.0 nM"}, "[43]": {"molecular_target": "Serine/threonine-protein kinase 38 (Homo sapiens) (UniProt Q15208)", "conditions": "Compound concentration 1000.0 nM"}},
  "data": [
    {"smiles": "COc1cccc(CNC(=O)c2nc3scc(COCc4ccc(C(=O)O)cc4)c3c(=O)[nH]2)c1", "note": "[T-26c]", "values": [
      {"measurement": "residual activity", "setting": "[1]", "value": 64.8, "unit": "%"},
      {"measurement": "residual activity", "setting": "[2]", "value": 74.5, "unit": "%"},
      {"measurement": "residual activity", "setting": "[3]", "value": 100, "unit": "%"},
      {"measurement": "residual activity", "setting": "[4]", "value": 100, "unit": "%"},
      {"measurement": "residual activity", "setting": "[5]", "value": 76.8, "unit": "%"},
      {"measurement": "residual activity", "setting": "[6]", "value": 100, "unit": "%"},
      {"measurement": "inhibition", "setting": "[7]", "value": 7.58, "unit": "%"},
      {"measurement": "residual activity", "setting": "[8]", "value": 100, "unit": "%"},
      {"measurement": "residual activity", "setting": "[9]", "value": 83.6, "unit": "%"},
      {"measurement": "inhibition", "setting": "Histamine H1 receptor", "value": 50.2, "unit": "%"},
      {"measurement": "residual activity", "setting": "[10]", "value": 85, "unit": "%"},
      {"measurement": "inhibition", "setting": "Rattus norvegicus", "value": 3.29, "unit": "%"},
      {"measurement": "residual activity", "setting": "[11]", "value": 80.4, "unit": "%"},
      {"measurement": "residual activity", "setting": "[12]", "value": 99.8, "unit": "%"},
      {"measurement": "residual activity", "setting": "[13]", "value": 100, "unit": "%"},
      {"measurement": "residual activity", "setting": "[14]", "value": 78.7, "unit": "%"},
      {"measurement": "inhibition", "setting": "[15]", "value": -1.39, "unit": "%"},
      {"measurement": "residual activity", "setting": "[16]", "value": 72.3, "unit": "%"},
      {"measurement": "residual activity", "setting": "[17]", "value": 100, "unit": "%"},
      {"measurement": "residual activity", "setting": "[18]", "value": 62.4, "unit": "%"},
      {"measurement": "residual activity", "setting": "[19]", "value": 87.8, "unit": "%"},
      {"measurement": "residual activity", "setting": "[20]", "value": 100, "unit": "%"},
      {"measurement": "residual activity", "setting": "[21]", "value": 77.5, "unit": "%"},
      {"measurement": "residual activity", "setting": "[22]", "value": 76, "unit": "%"},
      {"measurement": "residual activity", "setting": "[23]", "value": 76, "unit": "%"},
      {"measurement": "residual activity", "setting": "[24]", "value": 100, "unit": "%"},
      {"measurement": "residual activity", "setting": "[25]", "value": 54.2, "unit": "%"},
      {"measurement": "residual activity", "setting": "[26]", "value": 54.5, "unit": "%"},
      {"measurement": "inhibition", "setting": "[27]", "value": -1.51, "unit": "%"},
      {"measurement": "residual activity", "setting": "[28]", "value": 72.8, "unit": "%"},
      {"measurement": "residual activity", "setting": "[29]", "value": 94.4, "unit": "%"},
      {"measurement": "residual activity", "setting": "[30]", "value": 97.2, "unit": "%"},
      {"measurement": "residual activity", "setting": "[31]", "value": 98.9, "unit": "%"},
      {"measurement": "residual activity", "setting": "[32]", "value": 100, "unit": "%"},
      {"measurement": "residual activity", "setting": "[33]", "value": 99.9, "unit": "%"},
      {"measurement": "residual activity", "setting": "[34]", "value": 100, "unit": "%"},
      {"measurement": "residual activity", "setting": "[35]", "value": 70.6, "unit": "%"},
      {"measurement": "residual activity", "setting": "[36]", "value": 100, "unit": "%"},
      {"measurement": "inhibition", "setting": "[37]", "value": 13.9, "unit": "%"},
      {"measurement": "residual activity", "setting": "[38]", "value": 67.1, "unit": "%"},
      {"measurement": "residual activity", "setting": "[39]", "value": 78.1, "unit": "%"},
      {"measurement": "residual activity", "setting": "[40]", "value": 69.1, "unit": "%"},
      {"measurement": "residual activity", "setting": "[41]", "value": 80.2, "unit": "%"},
      {"measurement": "residual activity", "setting": "[42]", "value": 100, "unit": "%"},
      {"measurement": "residual activity", "setting": "[43]", "value": 72, "unit": "%"}
    ]}
  ]
}
